The values below come from publication PMC11103274 (Journal of the American Chemical Society, 2023).

The target in data set [1] is T1, human serine racemase (hSR) (Homo sapiens, UniProt Q9GZT4).
T1 sequence (Q9GZT4 1-340): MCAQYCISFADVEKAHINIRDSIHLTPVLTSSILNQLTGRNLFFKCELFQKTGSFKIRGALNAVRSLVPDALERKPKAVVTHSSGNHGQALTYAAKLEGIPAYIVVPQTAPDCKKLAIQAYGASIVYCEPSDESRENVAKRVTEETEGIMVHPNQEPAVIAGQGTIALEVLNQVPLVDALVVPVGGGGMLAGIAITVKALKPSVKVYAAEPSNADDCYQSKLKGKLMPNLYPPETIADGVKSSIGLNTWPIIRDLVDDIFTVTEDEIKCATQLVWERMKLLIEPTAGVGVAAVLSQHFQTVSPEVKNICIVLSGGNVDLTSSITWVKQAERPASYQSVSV
Description: 13C/2H-isotopic crosstalk NMR dual function assay. The note with it: for IC50: 13C/2H crosstalk NMR assay.

In data set [2] the target is T1, human serine racemase (hSR). The following applies: cited from earlier work.
Data set [3] has the same target. The experiment in a line: steady state kinetic analysis, coupled UV-vis assay for β-elimination. The format is biochemical.
Data set [4] has as its target T2, human serine racemase (hSR), allosteric ATP site (Homo sapiens, UniProt Q9GZT4).
T2 sequence (Q9GZT4 1-340): T1 sequence (Q9GZT4 1-340)
The experiment in a line: steady state competition against ATP, L-Ser held constant at 30 mM. The format is biochemical. The note with it: L-Ser constant at 30 mM.

Data set [5] in a line: solubility under assay conditions. The format is physicochemical.
The mark [6] stands for this setting: read-out: IC50(β-elimination), positive controls.
The mark [7] stands for this setting: read-out: IC50(H/D-exchange), L-Ser 30 mM.

Where two headings read alike, the source gives them in different places.

As to `CCOP(=O)(CC(=O)O)OCC` [compound 2, diethyl phosphonate acetate, reference compound], the IC50 in data set [1] (read-out: IC50(H/D-exchange), positive controls) stood at 95000 ± 10000 µM; in data set [1] (setting [6]) it was 96000 ± 19000 µM.
The term Ki denotes the dissociation constant of the complex between target and ligand, obtained from inhibition or displacement. Take `N[C@H](C(=O)O)[C@@H](O)C(=O)O` [L-EHA, L-erythro-β-hydroxy-aspartate]: the Ki in data set [2] (literature, most potent inhibitors yet identified) is roughly 30 µM.
“N-H indolo-chroman-2,4-dione [compound 10]”: the Ki in data set [3] (read-out: Ki (L-SOS elim), β-elimination of L-serine-O-sulfate) came out at 12 ± 4 µM; in data set [3] (read-out: Ki (L-Ser elim), β-elimination of L-Ser) it was 44 ± 6 µM. Besides, in data set [3] (steady state kinetics), the “mode of inhibition vs. substrate” value was “non-competitive inhibition”. The “mode of inhibition vs. ATP” value in data set [4] is given as “competing with ATP for the allosteric site”. For the same compound, the relative solubility entry in data set [5] was “more soluble than the N-alkyl congeners”. The “inhibition in the NMR screen” value in data set [1] (1 mM) is “complete inhibition”. Moreover, in data set [1] (NMR assay), the “Hill coefficient of dose-response curve” value is reported as ~ 2. Further, the IC50 turned out to be 45 ± 6 µM in data set [1] (setting [7]) and 36 ± 10 µM in data set [1] (read-out: IC50(β-elimination), L-Ser 30 mM).
For `NC(=O)C1=CN([C@@H]2O[C@H](COP(=O)(O)O)[C@@H](O)[C@H]2O)C=CC1` [NMNH, nicotinamide mononucleotide, reduced form], in data set [2] (ref Mozzarelli and co-workers), the “mode of inhibition with respect to substrate” value is on record as “non-competitive inhibition”.
Turning to `O=C(O)CC(=O)O` [malonate], the Ki in data set [2] (ref 33a) was 20 to 120 µM.
For the compound `O=C(O)C(Cl)(Cl)C(=O)O` [dichloromalonate], the inhibitory constant (Ki) in data set [2] is roughly 20 µM.
With `O=C(O)CP(=O)(O)O` [compound 1, phosphonoacetate, reference compound], the IC50 was 89 ± 35 µM in data set [1] (setting [7]) and 39000 ± 2000 µM in data set [1] (setting [6]).
